{"source": "patent US20120302636A1", "about": "“METHOD OF TREATING A DISORDER ASSOCIATED WITH MTP” (priority 2009, published 2012)", "key": {"[1]": {"assay": "Example 3: pharmacokinetics", "assay_type": "in vivo, human", "details": "all dose groups"}, "serum lipid levels [2]": {"tested_on": "serum lipid levels", "assay": "Example 5: fixed-dose or escalating doses 12 weeks in hyperlipidemia, efficacy", "assay_type": "in vivo, human", "details": "for LDL-C level decrease: dose escalation group", "experimental": "Fifty-two Japanese patients with hyperlipidemia (LDL-C between 140 and 220 mg/dL; TG≦400 mg/dL) participated in the study. […] One group received a fixed dose of 2 mg per tablet through the entire study. The other group received escalating doses of 0.5 mg (weeks 1-4), 1 mg (weeks 5-8), and 2 mg (weeks 9-12). For the efficacy analysis, 50 subjects were observed (25 in the fixed-dose group and 25 in the dose escalation group).\nThe objective of this study was preliminary evaluation of the efficacy (based on serum lipid levels), safety, and pharmacokinetics of the compound of formula (I) administered orally twice daily after breakfast and supper for 12 weeks as a fixed dose (4 mg/day) or escalating dose (1 mg/day, 2 mg/day and 4 mg/day) regimen in patients with hyperlipidemia."}, "[3]": {"assay": "Example 6: ascending dose study in healthy males and HTG patients, safety", "assay_type": "in vivo", "source_text": "(§1) Originally, the study was planned as 4 sequential cohorts of healthy male Caucasian subjects (Cohorts 1 to 4) followed by a cohort of male Caucasian patients with elevated triglycerides (HTG patients, Cohort 5). An additional cohort of healthy male Caucasian subjects (Cohort 4.1) was enrolled into the study (6 cohorts in total). The cohorts were as follows: Cohorts 1 to 4.1 had healthy Caucasian males, aged 18-45 years with a body weight of 60-100 kg and body mass index (BMI) between 19-28 kg/m^2 at screening and fasting triglycerides less than 1.69 mmol/L (less than 150 mg/dL) at the screening visit and Day-3. Cohort 5 had Caucasian males, aged 18-50 years with a body weight of 60-115 kg and BMI less than 35 kg/m^2 at screening and with elevated fasting triglycerides (TG≧1.69 mmol/L and <5.62 mmol/L; ≧150 mg/dL and <500 mg/dL) at the screening visit and Day-3.\n(§2) The planned treatment for Cohorts 1 to 4 was twice daily administration of 5 mg, 10 mg or 15 mg the compound of formula (I)/placebo, or once daily administration of 30 mg the compound of formula (1)/placebo. […] As only the compound of formula (I) 5 mg capsules were supplied for this study, doses were administered once daily to determine the maximum tolerated dose, and the planned doses for each subsequent cohort were amended based on the safety and tolerability data obtained from the preceding cohort. The dose level and dosing schedule planned for the patients in Cohort 5 was determined by the maximum tolerated dose and dosing schedule as reported from the planned Cohorts 1 to 4.1.\n(§3) Twelve healthy male Caucasian subjects were enrolled in each of Cohorts 1 to 4.1; dose cohorts were randomized in a ratio 9:3 to receive the compound of formula (I) or placebo, respectively, at the dose level associated with that cohort. Twelve male Caucasian patients with elevated triglycerides were randomized in a ratio of 8:4 to receive the compound of formula (I) or placebo, respectively, at the maximum tolerated dose level and dosing schedule.\nThis study was conducted to investigate the safety and tolerability of the compound of formula (I) and to determine the pharmacokinetic and pharmacodynamic profiles of the compound of formula (I) administered, either once or twice a day, for 14 days to healthy non-fasting male Caucasian subjects and male Caucasian HTG patients. The planned treatment for Cohorts 1 to 4 was twice daily administration of 5 mg, 10 mg or 15 mg the compound of formula (I)/placebo, or once daily administration of 30 mg the compound of formula (I)/placebo. […] Consequently, doses were administered once daily to healthy volunteers, and the planned doses for each subsequent cohort were amended based on the safety and tolerability data obtained from the preceding cohort."}, "serum lipid levels [4]": {"tested_on": "serum lipid levels", "assay": "Example 6: serum lipid levels / pharmacodynamics", "assay_type": "in vivo, human", "source_text": "as §1, §2, §3"}, "[5]": {"assay": "Example 9: safety and tolerability", "assay_type": "in vivo, human", "experimental": "The study enrolled 16 obese male subjects (18-65 years of age (inclusive), with a body mass index (BMI) >30.0 kg/m^2 and <40.0 kg/m^2) who participated in two treatment periods. During Period 1, 8 subjects were randomized to receive 3.5 mg of the compound of formula (I), and 8 subjects were randomized to receive placebo. The compound of formula (I) or placebo was administered twice daily (BID), 30 minutes after the start of breakfast and dinner, for 10 days. All subjects were discharged from the clinic at the end of Period 1 for a 9±2 day discharge period. Subjects then returned for treatment during Period 2, in which (i) the group previously receiving the compound of formula (I) now received placebo, and (ii) the group previously receiving placebo now received the compound of formula (I), in accordance with the protocol described above."}, "[6]": {"assay": "Example 8: 12-week study in obese subjects, efficacy", "details": "for mean change from baseline to EOT in body weight: 12 weeks"}, "[7]": {"assay": "Example 3: repeated dose study of tablets 1 or 2 mg BID, safety"}}, "note": "Entries after “also recorded” stand apart in the source; their conditions may differ."}
{"smiles": "CCOC(=O)C(COC(=O)Cc1ccc(NC(=O)c2ccccc2-c2ccc(C(F)(F)F)cc2)c(C(=O)N(C)C)c1)(C(=O)OCC)c1ccccc1", "note": "[compound of formula (I), diethyl 2-((2-(3-(dimethylcarbamoyl)-4-(4′-(trifiuoromethyl)biphenyl-2-ylcarboxamido)phenyl)acetoxy)methyl)-2-phenyl malonate]", "values": [{"measurement": "plasma concentrations of the compound of formula (I)", "setting": "[1]", "value": "below the limit of quantization"}, {"measurement": "TG level", "setting": "serum lipid levels [2]; both groups", "value": "tended to increase"}, {"measurement": "LDL-C level decrease", "setting": "serum lipid levels [2]; Week 10 (4 mg/day)", "value": "−7.24", "unit": "%"}, {"measurement": "LDL-C level decrease", "setting": "serum lipid levels [2]; Week 12 (4 mg/day)", "value": "−7.12", "unit": "%"}, {"measurement": "LDL-C level maximum decrease", "setting": "serum lipid levels [2]; fixed-dose group (2 mg BID), Week 2", "value": "−6.38", "unit": "%"}, {"measurement": "LDL-C level change", "setting": "serum lipid levels [2]; fixed-dose group, after Week 2 through Week 12", "value": "−1.96 to −5.98", "unit": "%"}, {"measurement": "subjects withdrawn due to adverse events", "setting": "[3]; 5 mg BID, Cohort 1", "value": 5, "unit": "subjects"}, {"measurement": "tolerability", "setting": "[3]; 5 mg BID, HTG patients, Cohort 5", "value": "reasonably well tolerated"}, {"measurement": "tolerability", "setting": "[3]; 5 mg BID, healthy subjects, Cohort 1", "value": "poorly tolerated; also recorded: not well tolerated"}, {"measurement": "subjects reporting treatment-emergent adverse events", "setting": "[3]; HTG patients receiving compound, Cohort 5", "value": "88 % of treatment group"}, {"measurement": "safety analyses (liver MRIs, tryptase, fat soluble vitamins, fecal fat)", "setting": "[3]; any cohort", "value": "no clinically relevant findings"}, {"measurement": "subjects reporting treatment-emergent adverse events", "setting": "[3]; healthy subjects receiving compound", "value": "76 % of treatment group"}, {"measurement": "tolerability", "setting": "[3]; healthy subjects, Cohorts 2 (5 mg QD), 3 (10 mg QD), 4 (15 mg QD), 4.1 (20 mg QD)", "value": "reasonably well-tolerated"}, {"measurement": "fatty liver (liver MRI)", "setting": "[3]; human, in vivo", "value": "without the presence of fatty liver"}, {"measurement": "renal function tests", "setting": "[3]; human, in vivo", "value": "did not suggest drug-related nephrotoxicity or hyperglycaemia"}, {"measurement": "effects on LDL-C, HDL-C, VLDL-C, and VLDL-TG vs QD regimens", "setting": "serum lipid levels [4]; 5 mg BID", "value": "more marked effects"}, {"measurement": "expected postprandial increase of TG and chylomicron-TG", "setting": "serum lipid levels [4]; healthy subjects and patients with high TG", "value": "suppressed"}, {"measurement": "campesterol (marker of cholesterol absorption)", "setting": "serum lipid levels [4]; in vivo", "value": "affects campesterol"}, {"measurement": "lathosterol (marker of cholesterol synthesis by the liver)", "setting": "serum lipid levels [4]; in vivo", "value": "not lathosterol"}, {"measurement": "impact on triglyceride-rich lipoproteins (ApoCII, ApoCIII, VLDL-TG, VLDL-C)", "setting": "serum lipid levels [4]; once-daily regimen", "value": "no discernible impact"}, {"measurement": "deaths or serious adverse events", "setting": "[5]; 3.5 mg BID, 10 days", "value": "no deaths or serious adverse events"}, {"measurement": "subjects with at least one treatment-emergent adverse event", "setting": "[5]; 3.5 mg BID, 10 days", "value": 53.3, "unit": "%"}, {"measurement": "safety and tolerability", "setting": "[5]; 3.5 mg BID, 10 days, fed conditions", "value": "safe and well-tolerated"}, {"measurement": "hematology, biochemistry, urinalysis, vital sign (including weight), ECG changes from baseline", "setting": "[5]; in vivo", "value": "No clinically meaningful mean changes"}, {"measurement": "mean change from baseline to EOT in body weight", "setting": "[6]; 1 mg BID", "value": -0.70, "unit": "kg"}, {"measurement": "mean change from baseline to EOT in body weight", "setting": "[6]; 2.5 mg BID", "value": -1.74, "unit": "kg"}, {"measurement": "mean change from baseline to EOT in body weight", "setting": "[6]; 3.5 mg BID", "value": -2.19, "unit": "kg"}, {"measurement": "waist circumference, waist-hip ratio, percent body fat vs placebo", "setting": "[6]; after 12 weeks", "value": "No statistically significant differences"}, {"measurement": "mean decreases from baseline LDL-C", "setting": "[6]; after 12 weeks, 3 compound groups", "value": "−5.90 to −8.27", "unit": "mg/dL"}, {"measurement": "triglyceride levels", "setting": "[6]; all treatment groups", "value": "increased from baseline"}, {"measurement": "TC and ApoB", "setting": "[6]; human, in vivo", "value": "improvements (reductions)"}, {"measurement": "weight loss by perilipin gene mutation", "setting": "[6]; human, in vivo", "value": "no differences"}, {"measurement": "subjects with adverse events (incidence)", "setting": "[7]; 1 mg BID", "value": 66.7, "unit": "%"}, {"measurement": "subjects with adverse events (incidence)", "setting": "[7]; 2 mg BID", "value": 50.0, "unit": "%"}, {"measurement": "fat-soluble vitamins (vitamin A, 25-OH vitamin D, and vitamin E)", "setting": "[7]; 1 and 2 mg BID", "value": "no decrease"}, {"measurement": "severity of all adverse events", "setting": "[7]; 1 and 2 mg BID", "value": "mild"}, {"measurement": "death or serious adverse events", "setting": "[7]; 1 or 2 mg BID tablets, 14 days", "value": "No death or other serious adverse events occurred"}, {"measurement": "subjects with adverse events (incidence)", "setting": "[7]; active group, 12 subjects", "value": 58.3, "unit": "%"}, {"measurement": "incidence of diarrhea", "setting": "[7]; overall compound group", "value": 25.0, "unit": "%"}, {"measurement": "incidence of gastrointestinal disorders (SOC)", "setting": "[7]; overall compound group", "value": 41.7, "unit": "%"}, {"measurement": "incidence of investigations (SOC)", "setting": "[7]; overall compound group", "value": 33.3, "unit": "%"}, {"measurement": "incidence of loose stools", "setting": "[7]; overall compound group", "value": 25.0, "unit": "%"}, {"measurement": "tolerable dose", "setting": "[7]; twice daily for 14 days, tablets", "value": "up to 2 mg"}]}
